Assay results as given in patent US9018197B2, “Tetradecahydro-1H-cyclopenta[a]phenanthrene compounds, compositions, and related methods of use” (Suzhou Neupharma Co. Ltd., priority 2010, dated 2015).

Key:
A549 cells = test: Inhibition of cell growth in tumor cells, MTT assay, A549 cells; assay type: cell-based; settings: Homo sapiens, 72 h compound exposure
Experimental: (§1) Inhibition of cell growth by compounds was measured using MTT assay (Mosmann, T., Journal of Immunological Methods, 1983, 65, 55-63). Tumor cell lines were purchased from ATCC (American Type Culture Collection, Manassas, Va.). All cell lines were maintained in RPMI 1640 (Hyclone) supplemented with 10% fetal bovine serum (FBS, Hyclone), glutamine (2 mM, Hyclone), and antibiotics (penicillin 100 U/mL and streptomycin 50 μg/mL) at 37° C. in a humidified atmosphere of 5% CO2 in air. Taxol (positive control, Sigma) and compounds were dissolved in DMSO (Sigma), and the final concentration of DMSO in the medium was 1%. Tumor cells were plated in 96-well plates at densities from 4000 cells/well of a 96-well plate and allowed to adhere/grow for 24 h. They were then treated with various concentrations of drug for 72 h. 3-(4,5-Dimethylthiazol-2-yl)-2,5-diphenyltetrazolium bromide (MTT, Sigma) was used to determine the number of viable cells at the time of compound addition and the number of cells remaining after 72 h compound exposure. The number of cells remaining after 72 h was compared to the number of viable cells at the time of compound addition by measuring the absorbance at 570 nm, allowing for the calculation of growth inhibition.
(§2) All concentrations of compounds were tested in triplicate and controls were averaged over 4 wells. IC50 was calculated by plotting the concentration of compound vs the percentage of inhibition in treated wells using GraphPad Prism 5.

Bcap-37 cells = test: Inhibition of cell growth in tumor cells, MTT assay, Bcap-37 cells; assay type: cell-based; settings: Homo sapiens, Bcap37, 72 h compound exposure
Experimental: as §1, §2

In the case of C[C@]12CC[C@H](OC(=O)NCCN3CCCC3)C[C@H]1CC[C@H]1C3=CC[C@H](c4ccc(=O)oc4)[C@@]3(C)CC[C@@H]12 [(3S,5R,8R,9S,10S,13R,17S)-10,13-dimethyl-17-(2-oxo-2H-pyran-5-yl)-2,3,4,5,6,7,8,9,10,11,12,13,16,17-tetradecahydro-1H-cyclopenta[a]phenanthren-3-yl 2-(pyrrolidin-1-yl)ethylcarbamate], the IC50 (A549 cells) is reported as 217 nM and the IC50 (Bcap-37 cells) is reported as 168 nM.
C[C@]12CC[C@H](OC(=O)NCCN3CCOCC3)C[C@H]1CC[C@H]1C3=CC[C@H](c4ccc(=O)oc4)[C@@]3(C)CC[C@@H]12 [(3S,5R,8R,9S,10S,13R,17S)-10,13-dimethyl-17-(2-oxo-2H-pyran-5-yl)-2,3,4,5,6,7,8,9,10,11,12,13,16,17-tetradecahydro-1H-cyclopenta[a]phenanthren-3-yl 2-morpholinoethylcarbamate] gave an IC50 (A549 cells) of 54.8 nM and an IC50 (Bcap-37 cells) of 192 nM.
For C[C@]12CC[C@H](OC(=O)N3CCNCC3)C[C@H]1CC[C@H]1C3=CC[C@H](c4ccc(=O)oc4)[C@@]3(C)CC[C@@H]12 [(3S,5R,8R,9S,10S,13R,17S)-10,13-dimethyl-17-(2-oxo-2H-pyran-5-yl)-2,3,4,5,6,7,8,9,10,11,12,13,16,17-tetradecahydro-1H-cyclopenta[a]phenanthren-3-ylpiperazine-1-carboxylate], the IC50 (A549 cells) was 90.2 nM and the IC50 (Bcap-37 cells) was 137 nM.
CC(C)[C@@H](N)C(=O)O[C@H]1CC[C@@]2(C)[C@H](CC[C@H]3C4=CC[C@H](c5ccc(=O)oc5)[C@@]4(C)CC[C@@H]32)C1 [(R)-((3S,5R,8R,9S,10S,13R,17S)-10,13-dimethyl-17-(2-oxo-2H-pyran-5-yl)-2,3,4,5,6,7,8,9,10,11,12,13,16,17-tetradecahydro-1H-cyclopenta[a]phenanthren-3-yl) 2-amino-3-methylbutanoate] was tested, and the IC50 (A549 cells) was 171 nM and the IC50 (Bcap-37 cells) was 155 nM.
Work on CC(C)C[C@@H](N)C(=O)O[C@H]1CC[C@@]2(C)[C@H](CC[C@H]3C4=CC[C@H](c5ccc(=O)oc5)[C@@]4(C)CC[C@@H]32)C1 [(R)-((3S,5R,8R,9S,10S,13R,17S)-10,13-dimethyl-17-(2-oxo-2H-pyran-5-yl)-2,3,4,5,6,7,8,9,10,11,12,13,16,17-tetradecahydro-1H-cyclopenta[a]phenanthren-3-yl) 2-amino-4-methylpentanoate] yielded an IC50 (Bcap-37 cells) of 376 nM.
Compound C[C@@H](N)C(=O)O[C@H]1CC[C@@]2(C)[C@H](CC[C@H]3C4=CC[C@H](c5ccc(=O)oc5)[C@@]4(C)CC[C@@H]32)C1 [(R)-((3S,5R,8R,9S,10S,13R,17S)-10,13-dimethyl-17-(2-oxo-2H-pyran-5-yl)-2,3,4,5,6,7,8,9,10,11,12,13,16,17-tetradecahydro-1H-cyclopenta[a]phenanthren-3-yl) 2-aminopropanoate] has an IC50 (A549 cells) of 106 nM and an IC50 (Bcap-37 cells) of 161 nM.
CC(C)[C@H](N)C(=O)O[C@H]1CC[C@@]2(C)[C@H](CC[C@H]3C4=CC[C@H](c5ccc(=O)oc5)[C@@]4(C)CC[C@@H]32)C1 [(S)-((3S,5R,8R,9S,10S,13R,17S)-10,13-dimethyl-17-(2-oxo-2H-pyran-5-yl)-2,3,4,5,6,7,8,9,10,11,12,13,16,17-tetradecahydro-1H-cyclopenta[a]phenanthren-3-yl) 2-amino-3-methylbutanoate] gave an IC50 (Bcap-37 cells) of 444 nM.
Work on CC(C)C[C@H](N)C(=O)O[C@H]1CC[C@@]2(C)[C@H](CC[C@H]3C4=CC[C@H](c5ccc(=O)oc5)[C@@]4(C)CC[C@@H]32)C1 [(S)-((3S,5R,8R,9S,10S,13R,17S)-10,13-dimethyl-17-(2-oxo-2H-pyran-5-yl)-2,3,4,5,6,7,8,9,10,11,12,13,16,17-tetradecahydro-1H-cyclopenta[a]phenanthren-3-yl) 2-amino-4-methylpentanoate] yielded an IC50 (A549 cells) of 229 nM.
C[C@H](N)C(=O)O[C@H]1CC[C@@]2(C)[C@H](CC[C@H]3C4=CC[C@H](c5ccc(=O)oc5)[C@@]4(C)CC[C@@H]32)C1 [(S)-((3S,5R,8R,9S,10S,13R,17S)-10,13-dimethyl-17-(2-oxo-2H-pyran-5-yl)-2,3,4,5,6,7,8,9,10,11,12,13,16,17-tetradecahydro-1H-cyclopenta[a]phenanthren-3-yl) 2-aminopropanoate] showed an IC50 (A549 cells) of 112 nM.
